Molecular target: T1, Gly137Asp LcαE7 (Gly137Asp variant of αE7 carboxylesterase) (Lucilia cuprina, UniProt Q25252, G137D)
T1 construct: GenBank number is of the wild-type parent
Experiment: Inhibition of Gly137Asp αE7 (competition assay, hydrolysis of 4-nitrophenol butyrate), dose-response curves of FIG. 8
Type: biochemical
Description: FIG. 8 presents dose-response curves for the inhibition of Glyl37Asp αE7. Inhibition of the hydrolysis of […] was determined for phenyl boronic acid (PBA) and compounds 1-5 and 3.1-3.12. Three (technical) replicate measurements of enzyme activity were performed for each concentration of boronic acid. The concentration of boronic acid required to inhibit 50% of activity (IC50) was determined by fitting a sigmoidal dose-response curve to plots of percentage inhibition. The curve was constrained to 0 (bottom) and 100% (top) inhibition with a variable Hill slope. […]
His6-tagged proteins were expressed in BL21(DE3) E. coli (Invitrogen) at 26° C. for 18 hours. Cells were collected by centrifugation, resuspended in lysis buffer (300 mM NaCl, 10 mM imidazole, 50 mM HEPES pH 7.5) and lysed by sonication. Cell debris was pelleted by centrifugation and the soluble fraction was loaded onto a HisTrap-HP Ni-Sepharose column (GE Healthcare). Bound protein was eluted with lysis buffer supplemented with 300 mM imidazole. Fractions containing the eluted protein were concentrated with a 30 kDa molecular mass cutoff centrifuge concentrator (Amicon) and loaded onto a HiLoad 26/60 Superdex-200 size-exclusion column (GE Healthcare) pre-equilibrated with 150 mM NaCl, 20 mM HEPES pH 7.5. Eluted fractions containing the monomeric protein were pooled for enzyme inhibition assays or crystallization. Protein concentration was determined by measuring the absorbance at 280 nm with an extinction coefficient calculated using the Protparam online server (Gasteiger, E. et al. Protein identification and analysis tools on the ExPASy server. Proteomics Protoc. Handb. 571-607 (2005). doi:10.1385/1-59259-890-0:571).
Inhibition of wild-type αE7 and the Gly137Asp αE7 variant was determined by a competition assay between the native-substrate analogue 4-nitrophenol butyrate (Sigma) and the boronic acid compounds. Initially, the Michalis constant (KM) with 4-nitrophenol butyrate was measured for both enzymes to determine an appropriate concentration of substrate for use in the competition assays. Formation of the 4-nitrophenolate product of hydrolysis was monitored at 405 nm in the presence of enzyme and eight different concentrations of substrate. 4-nitrophenol butyrate was prepared in methanol to 100 mM and serially diluted 1-in-2 to achieve concentrations from 100 mM to 0.8 mM. Enzyme stocks were prepared in 4 mg/ml bovine serum albumin (Sigma) to maintain enzyme stability. Reactions were prepared by pipetting 178 μl assay buffer (100 mM NaCl, 20 mM HEPES pH 7.5) and 2 μl substrate (final concentrations of 1000 to 8 μM) into 300 μl wells of a 96-well plate. The reaction was initiated by the addition of 20 μl enzyme (final concentration 2.5 nM for wildtype αE7 and 4 nM for Gly137Asp αE7). Product formation was monitored for four minutes at room temperature using an Epoch microplate spectrophotometer (BioTek) and the initial rates of ester hydrolysis were determined by linear regression using GraphPad Prism. The Michalis constant was determined by fitting the initial rates to the Michalis-Menton equation (FIG. 10).
Enzyme inhibition with the boronic acid compounds was determined by assaying the initial rate of 4-nitrophenol butyrate hydrolysis in the presence of either neat DMSO or the boronic acid compounds in DMSO. Compounds were prepared by serially diluting 1-in-3 an initial 10 mM stock to achieve concentrations from 10 mM to 2 nM. Reactions were prepared by pipetting 178 μl assay buffer supplemented with substrate to a final concentration equal to the KM of the enzyme (15 μM for wildtype αE7 and 250 μM for Gly137Asp αE7) into wells of a 96-well plate. 2 μl neat DMSO or 2 μl serially diluted inhibitor (final concentrations of 100 μM to 20 pM) were added to the wells. The reaction was initiated by the addition of 20 μl enzyme (final concentration 0.5 nM for wildtype αE7 and 10 nM for Glyl37Asp αE7). […]

T1 sequence (Q25252 entry or part of it G137D): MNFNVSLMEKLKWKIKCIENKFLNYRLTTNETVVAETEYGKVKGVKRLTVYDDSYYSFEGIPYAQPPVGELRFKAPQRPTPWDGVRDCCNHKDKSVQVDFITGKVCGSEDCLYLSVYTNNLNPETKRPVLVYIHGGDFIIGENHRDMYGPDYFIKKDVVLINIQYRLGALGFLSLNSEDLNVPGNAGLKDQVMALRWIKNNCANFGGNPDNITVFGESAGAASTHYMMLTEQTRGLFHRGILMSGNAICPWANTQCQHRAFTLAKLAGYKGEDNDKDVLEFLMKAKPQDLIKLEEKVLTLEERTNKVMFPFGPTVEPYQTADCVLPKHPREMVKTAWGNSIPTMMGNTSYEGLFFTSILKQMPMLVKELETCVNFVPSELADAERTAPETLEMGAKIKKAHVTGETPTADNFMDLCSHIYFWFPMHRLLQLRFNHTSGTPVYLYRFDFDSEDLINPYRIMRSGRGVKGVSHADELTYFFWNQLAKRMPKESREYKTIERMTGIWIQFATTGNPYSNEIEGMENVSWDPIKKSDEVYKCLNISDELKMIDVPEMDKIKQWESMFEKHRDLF

Compound | IC50 [nM]
OB(O)c1ccc(OCc2ccccc2F)c(Cl)c1 [Compound 5, 3-Chloro-4(2′-fluorobenzyloxy) phenylboronic acid] | 320
Cc1ccc(B(O)O)cc1Br [Compound 1] | 95
OB(O)c1cc(Br)cc(N2CCCC2)c1 [Compound 3] | 220
OB(O)c1cc(Br)cc(N2CCOCC2)c1 [Compound 3.1] | 840
CC(C)(C)Oc1ccc(B(O)O)cc1Br [Compound 3.12] | 1900
CN1CCN(c2cc(Br)cc(B(O)O)c2)CC1 [Compound 3.4] | 2000
CC(C)Oc1cc(Br)cc(B(O)O)c1 [Compound 3.7, 3-Bromo-5-isopropoxyphenylboronic acid] | 150
OB(O)c1ccc2ccccc2c1 [Compound 4] | 370
Cc1ccc(B(O)O)cc1OCc1ccccc1 [Compound 2] | 57
O=C(c1cc(Cl)cc(B(O)O)c1)N1CCOCC1 [Compound 3.11] | 2000
OB(O)c1ccccc1 [PBA, phenylboronic acid, reference compound] | 880
OB(O)c1cc(Br)cc2c1OCC2 [Compound 3.5] | 850
OB(O)c1cc(Br)cc(OC(F)(F)F)c1 [Compound 3.8] | 210
OB(O)c1cc(Br)cc(N2CCCCC2)c1 [Compound 3.3] | 290
OB(O)c1cc(Br)c2ccccc2c1F [Compound 3.6] | 140

From patent US20190327974A1, “SYNERGISTS FOR IMPROVED PESTICIDES” (priority 2017, published 2019)
